Read-outs that look alike come from different tables or passages of the source.
Key:
Assay type in all cases: biochemical
recombinant PRL-2 = target: T1, recombinant PRL-2 (Homo sapiens, UniProt Q12974); experiment: In vitro phosphatase assay (DiFMUP hydrolysis), PRL-2;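 further: PRL-2 activity read as DiFMUP hydrolysis after 20 min at room temperature with drug, enzyme first pre-reduced at 4 °C for 20 min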
T1 construct: 6xHis (N, cleaved yes); made in house; host or cells: E. coli One Shot BL21 Star
T1 sequence (Q12974 1-167): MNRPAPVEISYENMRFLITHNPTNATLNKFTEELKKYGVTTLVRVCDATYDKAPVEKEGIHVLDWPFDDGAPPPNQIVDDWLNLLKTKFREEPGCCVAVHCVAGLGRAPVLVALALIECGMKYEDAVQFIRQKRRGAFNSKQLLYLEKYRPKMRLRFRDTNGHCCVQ

recombinant PRL-1 = target: T2, recombinant PRL-1 (Homo sapiens, UniProt Q93096); experiment: In vitro phosphatase assay (DiFMUP hydrolysis), PRL-1; further: test concentration or dose not given here
T2 construct: 6xHis (N, cleaved yes); made in house; host or cells: E. coli One Shot BL21 Star
T2 sequence (Q93096 1-173): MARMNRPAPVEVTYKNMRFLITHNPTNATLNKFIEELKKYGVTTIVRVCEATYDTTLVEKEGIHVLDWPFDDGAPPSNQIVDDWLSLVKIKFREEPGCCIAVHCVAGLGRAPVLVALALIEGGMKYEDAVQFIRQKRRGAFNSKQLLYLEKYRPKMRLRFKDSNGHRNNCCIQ

recombinant PRL-3 = target: T3, recombinant PRL-3 (Homo sapiens, UniProt O75365); experiment: In vitro phosphatase assay (DiFMUP hydrolysis), PRL-3; further: test concentration or dose not given here
T3 construct: 6xHis (N, cleaved yes); made in house; host or cells: E. coli One Shot BL21 Star

[1] = FDA-approved drug screen, compared to DMSO
[2] = FDA-approved drug screen, activity compared to DMSO

T3 sequence (O75365 whole entry): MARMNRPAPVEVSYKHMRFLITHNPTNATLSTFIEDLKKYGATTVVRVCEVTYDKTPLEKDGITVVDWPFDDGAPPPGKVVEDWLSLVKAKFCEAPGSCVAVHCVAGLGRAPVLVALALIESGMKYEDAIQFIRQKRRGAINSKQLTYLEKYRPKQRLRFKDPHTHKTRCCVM

Compound | % Phosphatase Activity (compared to DMSO) PRL-2 (recombinant PRL-2; [1]) [%] | % Phosphatase Activity (compared to DMSO) PRL-1 (recombinant PRL-1; [1]) [%] | % Phosphatase Activity (compared to DMSO) PRL-3 (recombinant PRL-3; [1]) [%] | further results
COc1ccc(/C=C\c2cc(OC)c(OC)c(OC)c2)cc1OP(=O)([O-])[O-].[Na+].[Na+] | 76 | 88 | 109 | 
CCCC(CCC)C(=O)[O-].[Na+] |  |  |  | % Phosphatase Activity (compared to DMSO) PRL-2 (recombinant PRL-2; [2]): 75%; % Phosphatase Activity (compared to DMSO) PRL-1 (recombinant PRL-1; [2]): 86%; % Phosphatase Activity (compared to DMSO) PRL-3 (recombinant PRL-3; [2]): 77%
17-Hydroxyprogesterone | 77 | 86 | 86 | 
OC[C@H]1O[C@@H](O[C@@H]2[C@@H](CO)OC(O)(CO)[C@H]2O)[C@H](O)[C@@H](O)[C@H]1O (mixture of isomers) [Lactulose] | 115 | 104 | 85 | 
CN(N=O)C(=O)N[C@H]1C(O)O[C@H](CO)[C@@H](O)[C@@H]1O (mixture of isomers) [Streptozotocin (STZ)] |  |  |  | % Phosphatase Activity (compared to DMSO) PRL-2 (recombinant PRL-2; [2]): 88%; % Phosphatase Activity (compared to DMSO) PRL-1 (recombinant PRL-1; [2]): 96%; % Phosphatase Activity (compared to DMSO) PRL-3 (recombinant PRL-3; [2]): 78%
Cl.NCC(O)c1ccc(O)cc1 (racemic) [(+,-)-Octopamine HCl] | 102 | 110 | 78 | 
O=C1C(CC[S+]([O-])c2ccccc2)C(=O)N(c2ccccc2)N1c1ccccc1 (racemic) [(+/-)-Sulfinpyrazone] | 95 | 88 | 82 | 
COC(=O)C1=C(C)NC(C)=C(C(=O)O[C@@H]2CCCN(Cc3ccccc3)C2)[C@@H]1c1cccc([N+](=O)[O-])c1.Cl (racemic) [Benidipine HCl] | 107 | 91 | 94 | 
C[N+](C)(C)CC(O)CC(=O)O.[Cl-] (racemic) [DL-Carnitine HCl] | 94 | 100 | 85 | 
CC(C)(CO)C(O)C(=O)NCCCO (racemic) [DL-Panthenol] | 91 | 109 | 82 | 
CC(CCc1ccc(O)cc1)NCC(O)c1ccc(O)cc1.Cl (racemic) [Ractopamine HCl] | 113 | 103 | 100 | 
Cl.N[C@@H]1C[C@H]1c1ccccc1 (racemic) [Tranylcypromine (2-PCPA) HCl] |  |  |  | % Phosphatase Activity (compared to DMSO) PRL-2 (recombinant PRL-2): 110%; % Phosphatase Activity (compared to DMSO) PRL-1 (recombinant PRL-1): 111%; % Phosphatase Activity (compared to DMSO) PRL-3 (recombinant PRL-3): 87%
c1ccc(C2CN3CCSC3=N2)cc1 (single isomer, unassigned; (-)) [(-)-Tetramisole] |  |  |  | % Phosphatase Activity (compared to DMSO) PRL-2 (recombinant PRL-2): 92%; % Phosphatase Activity (compared to DMSO) PRL-1 (recombinant PRL-1): 93%; % Phosphatase Activity (compared to DMSO) PRL-3 (recombinant PRL-3): 99%
NC(=O)CCC(N)C(=O)O (stereo in doubt) [D-glutamine] | 80 | 96 | 94 | 
COc1ccc(C(=O)c2ccccc2O)c(O)c1 [2,2′-Dihydroxy-4-methoxybenzophenone] | 107 | 90 | 79 | 
CC1(C)OC(=O)NC1=O [5,5-Dimethyloxazolidine-2,4-dione] | 94 | 94 | 82 | 
Cl.NCC(=O)CCC(=O)O [5-Aminolevulinic acid HCl] | 130 | 106 | 86 | 
Oc1c(I)cc(Cl)c2cccnc12 [5-Chloro-8-hydroxy-7-iodoquinoline] | 90 | 96 | 71 | 
O.S=c1[nH]cnc2nc[nH]c12 [6-Mercaptopurine (6-MP) Monohydrate] | 108 | 95 | 85 | 
C=CCNC1=C2C[C@@H](C)C[C@H](OC)[C@H](O)[C@@H](C)/C=C(\C)[C@H](OC(N)=O)[C@@H](OC)/C=C\C=C(/C)C(=O)NC(=CC1=O)C2=O [17-AAG (Tanespimycin)] | 83 | 86 | 81 | 
CC12CCC(CC1=O)C2(C)C (stereo not drawn) [(+)-Camphor] | 132 | 116 | 104 | 

Source: PMC8119466, “A screen of FDA-approved drugs identifies inhibitors of protein tyrosine phosphatase 4A3 (PTP4A3 or PRL-3)” (Scientific Reports, 2021)
